B1: MOR03087: anti-CD38 antibody whose amino acid sequence and DNA sequence is provided in FIG. 4; disclosed in U.S. Pat. No. 8,088,896 (antibody, listed as Homo sapiens, V domains shown)
VH: QVQLVESGGGLVQPGGSLRLSCAASGFTFSSYYMNWVRQAPGKGLEWVSGISGDPSNTYYADSVKGRFTISRDNSKNTLYLQMNSLRAEDTAVYYCARDLPLVYTGFAYWGQGTLVTVSS
VL: DIELTQPPSVSVAPGQTARISCSGDNLRHYYVYWYQQKPGQAPVLVIYGDSKRPSGIPERFSGSNSGNTATLTISGTQAEDEADYYCQTYTGGASLVFGGGTKLTVLGQ
modifications: MOR202 Variable Heavy Domain; MOR202 Variable Light Domain

Assays:
[1] = test system: Human Multiple Myeloma NCI-H929 cells; assay: Orthotopic osteolysis model, microCT analysis of tibia (bone lysis); format: in vivo, SCID mice; details: for Total Bone Lysis: microCT, day 42, vehicle control = 100.0, Melphalan 4 mg/kg i.v., MOR03087 3 mg/kg i.p., 3x weekly for 6 weeks, data of FIG. 1
[2] = test system: Human Multiple Myeloma NCI-H929 cells; assay: M-Protein concentration in sera (ELISA) on day 42 of the orthotopic osteolysis model; format: in vivo, SCID mice; details: sera at termination (day 42), versus mice that received solvent diluent only, FIG. 3

Molecule | Bone lysis (microCT, FIG. 2) ([1]; Melphalan 8 mg/kg alone, i.v. 3x weekly for 6 weeks, day 42) | Total Bone Lysis [1] | Protein M concentration in sera [2]
N[C@@H](Cc1ccc(N(CCCl)CCCl)cc1)C(=O)O [Melphalan] | reduced bone lysis completely | 61.3% | significantly reduced
B1 | – | 27.6% | significantly reduced

Source: patent publication US9579378B2, “Combinations and uses thereof” (MORPHOSYS AG, priority 2012, dated 2017)
